Measured values as given in patent US12655116B2, “Substituted isophthalic acid diamides” (Bayer Aktiengesellschaft, priority 2020, dated 2026).

Legend:
[1] = system: DIGSA; test: Post-emergence herbicidal action against DIGSA; assay type: in vivo, Digitaria sanguinalis
Outline: (§1)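 Post-emergence greenhouse test; one-leaf stage, 2–3 wk post-sowing, sandy loam. Foliar spray of WP/EC in water, 600–800 l/ha, +0.2% wetting agent. Visual % action at ~3 wk vs untreated (100% = plants dead).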

[2] = system: SETVI; test: Pre-emergence herbicidal action against SETVI; assay type: in vivo, Setaria viridis
Outline: (§2)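 Herbicidal effect was assessed 3 weeks after treatment by visual comparison with untreated controls, 100% denoting dead plants. Aqueous WP or EC preparations had been applied at 600 to 800 l/ha with 0.2% wetting agent to the soil covering freshly sown seeds.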

[3] = system: LOLRI; test: Pre-emergence herbicidal action against LOLRI; assay type: in vivo, Lolium rigidum; details: 80 g/ha
Outline: as §2

[4] = system: VIOTR; test: Pre-emergence herbicidal action against VIOTR; assay type: in vivo, Viola tricolor
Outline: as §2

[5] = system: ALOMY; test: Pre-emergence herbicidal action against ALOMY; assay type: in vivo, Alopecurus myosuroides
Outline: as §2

[6] = system: ECHCG; test: Pre-emergence herbicidal action against ECHCG; assay type: in vivo, Echinochloa crus-galli; details: 80 g/ha
Outline: as §2

[7] = system: ALOMY; test: Post-emergence herbicidal action against ALOMY; assay type: in vivo, Alopecurus myosuroides; details: visual assessment about 3 weeks after treatment vs untreated controls
Outline: as §1

[8] = system: ABUTH; test: Post-emergence herbicidal action against ABUTH; assay type: in vivo, Abutilon theophrasti; details: dosage 20 g/ha, visual assessment about 3 weeks after treatment vs untreated controls
Outline: as §1

[9] = system: PHBPU; test: Pre-emergence herbicidal action against PHBPU; assay type: in vivo, Pharbitis purpurea
Outline: as §2

[10] = system: VIOTR; test: Post-emergence herbicidal action against VIOTR; assay type: in vivo, Viola tricolor
Outline: as §1

[11] = system: AMARE; test: Post-emergence herbicidal action against AMARE; assay type: in vivo, Amaranthus retroflexus; details: 20 g/ha, visual assessment about 3 weeks after treatment, 100% = plants have died, 0% = like control plants
Outline: as §1

[12] = system: ECHCG; test: Post-emergence herbicidal action against ECHCG; assay type: in vivo, Echinochloa crus-galli
Outline: as §1

[13] = system: ABUTH; test: Pre-emergence herbicidal action against ABUTH; assay type: in vivo, Abutilon theophrasti
Outline: as §2

[14] = system: PHBPU; test: Post-emergence herbicidal action against PHBPU; assay type: in vivo, Pharbitis purpurea
Outline: as §1

[15] = system: MATIN; test: Pre-emergence herbicidal action against MATIN; assay type: in vivo, Matricaria inodora
Outline: as §2

[16] = system: DIGSA; test: Pre-emergence herbicidal action against DIGSA; assay type: in vivo, Digitaria sanguinalis
Outline: as §2

[17] = system: VERPE; test: Post-emergence herbicidal action against VERPE; assay type: in vivo, Veronica persica; details: 20 g/ha
Outline: as §1

[18] = system: SETVI; test: Post-emergence herbicidal action against SETVI; assay type: in vivo, Setaria viridis
Outline: as §1

[19] = system: AVEFA; test: Post-emergence herbicidal action against AVEFA; assay type: in vivo, Avena fatua; details: 20 g/ha, visual assessment about 3 weeks after treatment, 100% = plants have died, 0% = like control plants
Outline: as §1

[20] = system: POLCO; test: Pre-emergence herbicidal action against POLCO; assay type: in vivo, Polygonum convolvulus; details: dosage 80 g/ha
Outline: as §2

[21] = system: POLCO; test: Post-emergence herbicidal action against POLCO; assay type: in vivo, Polygonum convolvulus; details: dosage 20 g/ha
Outline: as §1

[22] = system: AMARE; test: Pre-emergence herbicidal action against AMARE; assay type: in vivo, Amaranthus retroflexus
Outline: as §2

[23] = system: AVEFA; test: Pre-emergence herbicidal action against AVEFA; assay type: in vivo, Avena fatua
Outline: as §2

[24] = 20 g/ha, scored visually after 3 weeks, 100% = plants have died, 0% = like control plants
[25] = 80 g/ha, scored visually after 3 weeks vs untreated controls (100% = plants have died, 0% = like control plants)

Structure (SMILES): Cn1nnnc1NC(=O)c1ccc(C(F)(F)F)c(C(=O)NCC(F)F)c1Br [Example 1-212]
- Post-emergence action against DIGSA in % ([1]; 5 g/ha): 90%
- Post-emergence action against DIGSA ([1]; 20 g/ha): 100%
- Pre-emergence action against SETVI in % ([2]; dosage 20 g/ha): 80%
- Pre-emergence action against SETVI in % ([2]; dosage 80 g/ha): 100%
- Pre-emergence action against LOLRI in % [3]: 80%
- Pre-emergence action against VIOTR in % ([4]; dosage 20 g/ha): 100%
- Pre-emergence action against VIOTR in % ([4]; dosage 80 g/ha): 100%
- Pre-emergence action against ALOMY [5, 24]: 100%
- Pre-emergence action against ALOMY (herbicidal activity) ([5]; 80 g/ha, pre-emergence, scored visually after 3 weeks vs untreated controls (100% = plants have died, 0% = like control plants)): 100%
- Pre-emergence action against ECHCG in % [6]: 100%
- Post-emergence action against ALOMY in % ([7]; dosage 5 g/ha): 80%
- Post-emergence action against ALOMY in % ([7]; dosage 20 g/ha): 90%
- Post-emergence action against ABUTH in % [8]: 80%
- Pre-emergence action against PHBPU in % ([9]; dosage 20 g/ha): 80%
- Pre-emergence action against PHBPU in % ([9]; dosage 80 g/ha): 80%
- Post-emergence action against VIOTR in % ([10]; 5 g/ha): 80%
- Post-emergence action against VIOTR in % ([10]; 20 g/ha): 90%
- Post-emergence action at 20 g/ha against AMARE in % [11]: 100%
- Post-emergence action against ECHCG in % ([12]; dosage 5 g/ha): 80%
- Post-emergence action against ECHCG in % ([12]; dosage 20 g/ha): 80%
- Pre-emergence action against ABUTH (herbicidal activity) [13, 25]: 100%
- Pre-emergence action against ABUTH (herbicidal activity in percent) ([13]; dosage 20 g/ha, scored visually after 3 weeks vs untreated controls, 100% = plants have died, 0% = like control plants): 80%
- Post-emergence action against PHBPU in % ([14]; dosage 5 g/ha): 80%
- Post-emergence action against PHBPU in % ([14]; dosage 20 g/ha): 90%
- Pre-emergence action against MATIN in % ([15]; dosage 20 g/ha): 90%
- Pre-emergence action against MATIN in % ([15]; dosage 80 g/ha): 100%
- Pre-emergence action against DIGSA in % ([16]; dosage 20 g/ha): 100%
- Pre-emergence action against DIGSA in % ([16]; dosage 80 g/ha): 100%
- Post-emergence action against VERPE in % [17]: 80%
- Post-emergence action against SETVI in % ([18]; dosage 5 g/ha): 80%
- Post-emergence action against SETVI in % ([18]; dosage 20 g/ha): 90%
- Post-emergence action at 20 g/ha against AVEFA in % [19]: 80%
- Pre-emergence action against POLCO in % [20]: 80%
- Post-emergence action against POLCO in % [21]: 100%
- Pre-emergence action against AMARE in % ([22]; 20 g/ha, scored visually after 3 weeks vs untreated controls, 100% = plants have died, 0% = like control plants): 100%
- Pre-emergence action against AMARE in % [22, 25]: 100%
- Pre-emergence action against AVEFA [23, 24]: 80%
- Pre-emergence action against AVEFA in % ([23]; 80 g/ha, pre-emergence): 90%
